Key:
Type in all cases: in vivo
[1] = system: Plutella xylostella caterpillars; experiment: Action against Plutella xylostella caterpillars; settings: 72 h, 400 ppm spray mixture on young cabbage plants, 10 caterpillars in the third stage, evaluation 3 days later, read-out: percentage reduction in population and percentage reduction in feeding damage (% activity)
Method: (§1) Young cabbage plants are sprayed with an aqueous emulsion spray mixture comprising 400 ppm of test compound. After the spray-coating has dried, the cabbage plants are populated with 10 caterpillars of Plutella xylostella in the third stage and placed in a plastics container. Evaluation is made 3 days later. The percentage reduction in population and the percentage reduction in feeding damage (% activity) are determined by comparing the number of dead caterpillars and the feeding damage on the treated plants with that on the untreated plants.

[2] = system: Spodoptera littoralis caterpillars; experiment: Action against Spodoptera littoralis; settings: 72 h, 400 ppm spray mixture on young soybean plants, 10 caterpillars in the first stage, 3 days later, read-out: percentage reduction in population and percentage reduction in feeding damage (% activity)
Method: Young soybean plants are sprayed with an aqueous emulsion spray mixture comprising 400 ppm of test compound and, after the spray-coating has dried, the plants are populated with 10 caterpillars of Spodoptera littoralis in the first stage and then placed in a plastics container, 3 days later, the percentage reduction in population and the percentage reduction in feeding damage (% activity) are determined by comparing the number of dead caterpillars and the feeding damage on the treated plants with that on untreated plants.

[3] = system: Heliothis virescens caterpillars; experiment: Action against Heliothis virescens caterpillars; settings: 144 h, 400 ppm spray mixture on young soybean plants, 10 caterpillars in the first stage, evaluation 6 days later, read-out: percentage reduction in population and percentage reduction in feeding damage (% activity)
Method: as §1, with “soybean” for “cabbage”, “Heliothis virescens” for “Plutella xylostella”, “first” for “third”, “6” for “3”

Measured: inhibition at 400 ppm

O=C(NCCCOc1c(Cl)cc(OCC=C(Cl)Cl)cc1Cl)C(=C(Cl)Cl)c1ccc(C(F)(F)F)cc1 [Compound 1.2, 3,3-dichloro-N-{3-[2,6-dichloro-4-(3,3-dichloro-allyloxy)-phenoxy]-propyl}-2-(4-trifluoromethyl-phenyl)-acrylamide]
> 80%: all assays above

C=C(COc1ccc(C(F)(F)F)cc1)COc1c(Cl)cc(OCC=C(Cl)Cl)cc1Cl [Compound 1.9, 1,3-dichloro-5-(3,3-dichloro-allyloxy)-2-[2-(4-trifluoromethyl-phenoxymethyl)-allyloxy]-benzene]
> 80%: all assays above

Source: patent US7638514B2, “Pesticidally active phenol derivatives” (Syngenta Crop Protection, Inc., priority 2003, dated 2009)
